US10738028B2, “Spiro three-membered ring, spiro five-membered ring peptide deformylase inhibitor and use thereof in antibacteria and anti-tumor” (priority 2016, dated 2020)

Key:
Format in all cases: cell-based
[1] = system: methicillin-sensitive Staphylococcus epidermidis (MSSE); assay: MIC, two-fold agar dilution (CLSI), clinical isolates
Method in brief: (§1)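 CLSI two-fold agar dilution; MIC of test samples read per tested strain.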

[2] = system: Escherichia coli (including ESBLs, non-ESBLs); assay: as above
Method in brief: as §1

[3] = system: Moraxella catarrhalis (BCA); assay: as above
Method in brief: as §1

[4] = system: Enterococcus faecium (EFM); assay: as above
Method in brief: as §1

[5] = system: methicillin-sensitive Staphylococcus aureus (MSSA); assay: as above
Method in brief: as §1

[6] = system: Streptococcus pneoumoniae (SPN); assay: as above
Method in brief: as §1

[7] = system: methicillin-resistant Staphylococcus aureus (MRSA); assay: as above
Method in brief: as §1

[8] = system: methicillin-resistant Staphylococcus epidermidis (MRSE); assay: as above
Method in brief: as §1

[9] = system: Enterococcus faecalis (EFA); assay: as above
Method in brief: as §1

[10] = system: HCT-116 colorectal cancer cell line; assay: CCK-8 proliferation inhibition; conditions: Homo sapiens, HCT-116, 72 h, concentration of 30 μM; 72 hours; CCK-8; read-out: HCT116 inhibition rate/%
Method in brief: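 2000 cells/well, McCoy's 5A + 10% newborn bovine serum; overnight attach, 37° C./5% CO2. Cpd from DMSO stock diluted in medium, 72 h. Readout: CCK-8 (1:10). Ctrl 1‰ DMSO.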

O=CN(O)C[C@@H](CC1CCCC1)C(=O)N1CC2(CC2)C[C@H]1C(=O)Nc1nncs1 [Example 41, (S)-5-((R)-3-cyclopentyl-2-((N-hydroxyformamido)methyl)propionyl)-N-(1,3,4-thiadiazol-2-yl)-5-azaspiro[2.4]heptane-6-carboxamide]
Anti-bacterial activity (MIC), strain MSSE 15-3 ([1]; clinical isolate MSSE 15-3): 1 µg/mL
Anti-bacterial activity (MIC), strain MSSE 15-4 ([1]; clinical isolate MSSE 15-4): 1 µg/mL
Anti-bacterial activity (MIC), strain MSSE 15-5 ([1]; clinical isolate MSSE 15-5): 1 µg/mL
Anti-bacterial activity (MIC), strain MSSE 15-6 ([1]; clinical isolate MSSE 15-6): 1 µg/mL
Anti-bacterial activity (MIC), strain ECO+ 15-1 ([2]; clinical isolate ECO+ 15-1): 32 µg/mL
Anti-bacterial activity (MIC), strain ECO+ 15-2 ([2]; clinical isolate ECO+ 15-2): 32 µg/mL
Anti-bacterial activity (MIC), strain ECO+ 15-3 ([2]; clinical isolate ECO+ 15-3): 32 µg/mL
Anti-bacterial activity (MIC), strain ECO+ 15-4 ([2]; clinical isolate ECO+ 15-4): 32 µg/mL
Anti-bacterial activity (MIC), strain ECO− 15-1 ([2]; clinical isolate ECO− 15-1): 32 µg/mL
Anti-bacterial activity (MIC), strain ECO− 15-2 ([2]; clinical isolate ECO− 15-2): 32 µg/mL
Anti-bacterial activity (MIC), strain ECO− 15-3 ([2]; clinical isolate ECO− 15-3): 32 µg/mL
Anti-bacterial activity (MIC), strain ECO− 15-4 ([2]; clinical isolate ECO− 15-4): 32 µg/mL
Anti-bacterial activity (MIC), strain BCA 14-1 ([3]; clinical isolate BCA 14-1): 1 µg/mL
Anti-bacterial activity (MIC), strain BCA 14-4 ([3]; clinical isolate BCA 14-4): 2 µg/mL
Anti-bacterial activity (MIC), strain BCA 14-5 ([3]; clinical isolate BCA 14-5): 0.25 µg/mL
Anti-bacterial activity (MIC), strain BCA 14-6 ([3]; clinical isolate BCA 14-6): 4 µg/mL
Anti-bacterial activity (MIC), strain BCA 14-7 ([3]; clinical isolate BCA 14-7): 1 µg/mL
Anti-bacterial activity (MIC), strain BCA 14-8 ([3]; clinical isolate BCA 14-8): 4 µg/mL
Anti-bacterial activity (MIC), strain BCA 14-10 ([3]; clinical isolate BCA 14-10): 0.5 µg/mL
Anti-bacterial activity (MIC), strain EFM 15-1 ([4]; clinical isolate EFM 15-1): 1 µg/mL
Anti-bacterial activity (MIC), strain EFM 15-2 ([4]; clinical isolate EFM 15-2): 2 µg/mL
Anti-bacterial activity (MIC), strain EFM 15-3 ([4]; clinical isolate EFM 15-3): 0.25 µg/mL
Anti-bacterial activity (MIC), strain EFM 15-4 ([4]; clinical isolate EFM 15-4): 1 µg/mL
Anti-bacterial activity (MIC), strain EFM 15-5 ([4]; clinical isolate EFM 15-5): 1 µg/mL
Anti-bacterial activity (MIC), strain EFM 15-6 ([4]; clinical isolate EFM 15-6): 2 µg/mL
Anti-bacterial activity (MIC), strain MSSA 15-3 ([5]; clinical isolate MSSA 15-3): 1 µg/mL
Anti-bacterial activity (MIC), strain MSSA 15-4 ([5]; clinical isolate MSSA 15-4): 0.5 µg/mL
Anti-bacterial activity (MIC), strain MSSA 15-5 ([5]; clinical isolate MSSA 15-5): 0.5 µg/mL
Anti-bacterial activity (MIC), strain MSSA 15-6 ([5]; clinical isolate MSSA 15-6): 0.5 µg/mL
Anti-bacterial activity (MIC), strain SPN 16-2 ([6]; clinical isolate SPN 16-2): 0.25 µg/mL
Anti-bacterial activity (MIC), strain SPN 16-4 ([6]; clinical isolate SPN 16-4): 4 µg/mL
Anti-bacterial activity (MIC), strain MRSA 15-1 ([7]; clinical isolate MRSA 15-1): 0.5 µg/mL
Anti-bacterial activity (MIC), strain MRSA 15-2 ([7]; clinical isolate MRSA 15-2): 1 µg/mL
Anti-bacterial activity (MIC), strain MRSA 15-3 ([7]; clinical isolate MRSA 15-3): 0.5 µg/mL
Anti-bacterial activity (MIC), strain MRSA 15-4 ([7]; clinical isolate MRSA 15-4): 1 µg/mL
Anti-bacterial activity (MIC), strain MRSE 15-1 ([8]; clinical isolate MRSE 15-1): 0.5 µg/mL
Anti-bacterial activity (MIC), strain MRSE 15-2 ([8]; clinical isolate MRSE 15-2): 1 µg/mL
Anti-bacterial activity (MIC), strain MRSE 15-3 ([8]; clinical isolate MRSE 15-3): 1 µg/mL
Anti-bacterial activity (MIC), strain MRSE 15-7 ([8]; clinical isolate MRSE 15-7): 1 µg/mL
Anti-bacterial activity (MIC), strain EFA 15-1 ([9]; clinical isolate EFA 15-1): 4 µg/mL
Anti-bacterial activity (MIC), strain EFA 15-2 ([9]; clinical isolate EFA 15-2): 4 µg/mL
Anti-bacterial activity (MIC), strain EFA 15-3 ([9]; clinical isolate EFA 15-3): 1 µg/mL
Anti-bacterial activity (MIC), strain EFA 15-4 ([9]; clinical isolate EFA 15-4): 4 µg/mL
Anti-bacterial activity (MIC), strain EFA 15-5 ([9]; clinical isolate EFA 15-5): 4 µg/mL
Anti-bacterial activity (MIC), strain EFA 15-6 ([9]; clinical isolate EFA 15-6): 4 µg/mL
Anti-bacterial activity (MIC), strain EFA 15-9 ([9]; clinical isolate EFA 15-9): 4 µg/mL
inhibition at 30 µM [10]: 24%
